Results taken from article PMC12410356 (International Journal for Parasitology: Drugs and Drug …, 2025).
Read-outs that look alike come from different tables or passages of the source.

How the values were obtained:
mice = test system: mice; set-up: method as in Almahariq et al., 2013; Maeda et al., 2020; conditions: ref Almahariq et al., 2013, Maeda et al., 2020, cited from earlier work
[1] = test system: E. multilocularis metacestode vesicles; test: Transmission electron microscopy of treated metacestode vesicles; format: cell-based, Echinococcus multilocularis; conditions: 1 μM, 24 h
Procedure: To investigate induction of ultrastructural changes in E. multilocularis metacestode vesicles treated with ESI-09, transmission electron microscopy (TEM) was performed. Metacestode vesicles were treated with either 1 μM ESI-09 or the solvent control DMSO with subsequent incubation for 24 h at 37 °C under a humid, 5 % CO2 atmosphere. Processing and imaging was done as previously described ([Kaethner et al., 2023]).

[2] = test system: E. multilocularis metacestode vesicles; test: Metacestode vesicle viability assay (ATP, CellTiter-Glo); format: cell-based, Echinococcus multilocularis; conditions: Echinococcus multilocularis, 288 h; for viability at 10 µM: 12 days, read-out: Viability d12 (relative viability)
Procedure: Viability was assessed after 12 days using the same metacestode vesicles as for the PGI release assay. Triton X-100 was added to each well to a final concentration of 0.1 %. Subsequently the metacestode vesicles were broken mechanically and 50 μL of the supernatant was mixed with 50 μL of CellTiter-Glo® buffer (Promega, Dübendorf, Switzerland). Measurements were performed on a HIDEX Sense microplate reader.

[3] = test system: E. multilocularis metacestode vesicles; test: Phosphoglucose isomerase (PGI) release assay (damage-marker release) on metacestode vesicles; format: cell-based, Echinococcus multilocularis; conditions: for PGI d5 (relative PGI release) / PGI d12 (relative PGI release): 10 μM; for PGI d5 (relative PGI release): 5 days; for PGI d12 (relative PGI release): 12 days
[4] = test system: E. multilocularis GL cells; test: Germinal layer cell viability assay (CellTiter-Glo); format: cell-based, Echinococcus multilocularis
Procedure: The isolation of GL cells was conducted according to ([Kaethner et al., 2023]). Briefly, conditioned DMEM (cDMEM) was prepared prior to isolation. For the preparation of cDMEM, 1 × 10^6 RH cells and 10 × 10^6 RH cells incubated in DMEM supplemented with 10 % FBS, penicillin (100 U/mL), streptomycin (100 μg/mL) and tetracycline (5 μg/mL) for six or four days, respectively, at 37 °C under a humid, 5 % CO2 atmosphere. The supernatant of each was mixed 1:1 and sterile filtrated, resulting in cDMEM. Metacestode vesicles of at least 6 months of age were washed with PBS, incubated in distilled H2O for 2.5 min and subsequently mechanically disrupted. The resulting pellet was resuspended in 7 vol of pre-warmed 0.05 % Trypsin/0.02 % EDTA and incubated at 37 °C for 30 min. GL cells were extracted from the laminated layer by vigorous shaking followed by filtration through a 30 μm mesh (Sefar AG, Heiden, Switzerland) and separated from calcareous corpuscles by short centrifugation at 50×g for 30 s at RT. The isolated cells were centrifuged for 10 min at 600×g and RT and the pellet was resuspended in cDMEM. The cell suspension was diluted 1:100 in PBS to measure the OD600. An OD600 value of 0.1 of this dilution was defined as one arbitrary unit (AU) per μL of the undiluted cell suspension corresponding to 0.97 ± 0.11 μg of total protein for the GL cells as measured via Pierce™ bicinchoninic acid (BCA) Protein Assay Kit according to the manufacturer's protocol (Fisher Scientific AG, Reinach, Switzerland). 1′000 AU per 5 mL of cDMEM were cultured at 37 °C overnight under a humid nitrogen atmosphere. The next day, 2′000 AU of GL cells were combined and further cultured for 3 h at 37 °C under a humid nitrogen atmosphere before they were used for further experiments.
To assess effects of compounds on the cell viability of isolated E. multilocularis GL cells, the protocol was applied as previously described ([Kaethner et al., 2023]). In short, 15 AU of GL cells were distributed into each well of a black 384-well plate. Compounds dissolved in DMSO (alexidine, carbendazim, ESI-09, MMV1581545 and oxfendazole) were added to final concentrations ranging from 80 to 0.31 μM (1:2 serial dilution) and the cells were cultured for 5 days at 37 °C under a humid, microaerobic atmosphere (85 % N2, 10 % CO2, 5 % O2). DMSO with the respective concentration was used as a solvent control. Viability was measured using the CellTiter-Glo® kit. Luminescence was measured using a HIDEX Sense microplate reader. Measurements were done in quadruplicates and represented as relative viability of the DMSO controls. IC50 values were calculated in R applying the five parameter logistic model for three independent experiments ([Ritler et al., 2020]).

[5] = test system: E. multilocularis GL cells; test: Seahorse mito cell stress test, oxygen consumption rate; format: cell-based, Echinococcus multilocularis; conditions: titration in GL cells
Procedure: To measure mitochondrial respiration in E. multilocularis GL cells, Seahorse “mito cell stress test” was performed according to the manual for Seahorse XFp Extracellular Flux Analyzer (Agilent Technologies, Basel, Switzerland) with some adaptations ([Gu et al., 2021]; [Rufener et al., 2018]). Seahorse XFp 8-well plates were hydrated and incubated together with Seahorse XF calibrant solution at 37 °C in a non-CO2 incubator overnight the day before the actual experiment. […] Oligomycin was used at a final concentration of 1.5 μM. […] The experiment was repeated three times independently with two technical replicates.

cancer cell lines = test system: cancer cell lines; set-up: method as in Maeda et al., 2020; conditions: ref Maeda et al., 2020; cited from earlier work
[6] = confirmation screen, triplicates, mean
[7] = overview screen, singlets, relative to 0.1 % Triton X-100, DMSO subtracted

CC(C)(C)c1cc(C(=O)/C(C#N)=N/Nc2cccc(Cl)c2)no1 [ESI-09]
tolerability in mice (in words) (mice; daily 10 mg/kg intraperitoneal for 21 days): well-tolerated
tolerability in mice (in words) (mice; daily 50 mg/kg oral gavage up to 26 days): well-tolerated
ultrastructural changes in metacestode vesicles (in words) [1]: induced distinct ultrastructural changes
ultrastructural changes in mitochondria (in words) [1]: no ultrastructural changes in mitochondria were seen
viability at 10 µM [2, 6]: 10.7%
viability at 10 µM ([2]; overview screen, singlets, relative to DMSO control): 7.77%
IC50 ([2]; 12 days incubation, mean ± SD of three independent experiments): 2.09 ± 0.56 µM
IC50 ([3]; Echinococcus multilocularis, 288 h, 12 days incubation, mean ± SD of three independent experiments): 6.06 ± 3.18 µM
PGI d5 (relative PGI release) [3, 6]: 6.08%
PGI d12 (relative PGI release) [3, 6]: 38.44%
detachment of the GL from the laminated layer, visible from concentration ([3]; microscopy pictures, 12 days incubation): ≥ 13.3 µM
PGI d5 (relative PGI release) [3, 7]: 33.0513%
PGI d12 (relative PGI release) [3, 7]: 64.0941%
effect on GL cell viability (in words) ([4]; 80 to 0.31 μM, 5 days): highly effective
IC50 ([4]; Echinococcus multilocularis, 120 h, 5 days incubation, microaerobic, mean ± SD of three independent experiments): 2.45 ± 0.86 µM
optimal (maximal) uncoupling concentration [5]: 2 µM
optimal uncoupling concentration in cancer cell lines (cancer cell lines): 2 µM
